Source: PubChem BioAssay AID743471 (Broad Institute, 2014)

System: HepG2 viability, ATP luminescence (CellTiter-Glo), 72 h
Experiment: viability loss in HepG2 hepatoma cells – cell-based, luminescence, dry powder, set 12, cytotoxicity control, dose response (AID 743471)

`C=C([C@@H](O)[C@@H](C)O)[C@@H](OC)[C@]1(C)Cc2cc3cc(O[C@H]4CC(OC5CC(O)C(O)C(C)O5)C(O)C(C)O4)cc(O)c3c(O)c2C(=O)[C@H]1OC1CC(OC2CC(OC3CC(C)(O)C(O)C(C)O3)C(O)C(C)O2)C(O)C(C)O1` (some centres not stated) gave an AC35 of 0.116 µM.
With `Nc1ncnc2c1c(-c1cccc(OCc3ccccc3)c1)cn2C1CC(CN2CCCC2)C1` (configuration not stated) the AC35 was 9.61 µM.
